Experimental data taken from PubChem BioAssay AID256 (DTP/NCI, 2004).
Toxic doses and inconclusive results are not listed. The calls were made as follows: active = survival T/C of 150% or more; inactive = T/C below 125% in these data.

System: CD2F1 mice, L1210 leukemia ip, survival T/C
Assay: NCI In Vivo Anticancer Drug Screen. Data for tumor model L1210 Leukemia (intraperitoneal) in CD2F1 (CDF1) mice
Conditions: higher = longer survival
How it was run: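 Activity against a transplanted murine tumor was judged by comparing the compound group with a vehicle group. The outcome in the treated animals was divided by that in the controls.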

[1] = endpoint: mean survival time, dose: 100.0 mg/kg/injection, schedule: Q01DX009 (ip), vehicle: saline with Tween-80
[2] = endpoint: mean survival time, dose: 100.0 mg/kg/injection, schedule: Q04DX003 (ip), vehicle: saline
[3] = endpoint: mean survival time, dose: 200.0 mg/kg/injection, schedule: Q01DX009 (ip), vehicle: saline with Tween-80
[4] = endpoint: mean survival time, dose: 200.0 mg/kg/injection, schedule: Q04DX003 (ip), vehicle: saline
[5] = endpoint: mean survival time, dose: 400.0 mg/kg/injection, schedule: Q01DX009 (ip), vehicle: saline with Tween-80
[6] = endpoint: mean survival time, dose: 100.0 mg/kg/injection, schedule: Q04DX003 (ip), vehicle: saline with Tween-80
[7] = endpoint: mean survival time, dose: 200.0 mg/kg/injection, schedule: Q04DX003 (ip), vehicle: saline with Tween-80
[8] = endpoint: mean survival time, dose: 400.0 mg/kg/injection, schedule: Q04DX003 (ip), vehicle: saline with Tween-80
[9] = endpoint: mean survival time, dose: 100.0 mg/kg/injection, schedule: Q04DX002 (ip), vehicle: saline with Tween-80
[10] = endpoint: mean survival time, dose: 200.0 mg/kg/injection, schedule: Q04DX002 (ip), vehicle: saline with Tween-80
[11] = endpoint: mean survival time, dose: 400.0 mg/kg/injection, schedule: Q04DX002 (ip), vehicle: saline with Tween-80
[12] = endpoint: mean survival time, dose: 50.0 mg/kg/injection, schedule: Q01DX009 (ip), vehicle: saline with Tween-80

Measured: T/C

CCCCCCCCCCCCCCC(=O)O.[Pb]
inactive: endpoint: mean survival time, dose: 75.0 mg/kg/injection, schedule: Q01DX001 (ip), vehicle: other 103 % of control | endpoint: mean survival time, dose: 150.0 mg/kg/injection, schedule: Q01DX001 (ip), vehicle: other 103 % of control | endpoint: mean survival time, dose: 300.0 mg/kg/injection, schedule: Q01DX001 (ip), vehicle: other 98 % of control

O=CNCCO
inactive: [1] 98 % of control | [2] 113 % of control | [3] 94 % of control | [4] 108 % of control | [5] 93 % of control | endpoint: mean survival time, dose: 400.0 mg/kg/injection, schedule: Q04DX003 (ip), vehicle: saline 110 % of control

CCCC(O)C(N)CC (stereo unspecified)
inactive: endpoint: mean survival time, dose: 100.0 mg/kg/injection, schedule: Q01DX001 (ip), vehicle: saline 98 % of control | endpoint: mean survival time, dose: 200.0 mg/kg/injection, schedule: Q01DX001 (ip), vehicle: saline 90 % of control

Nc1nc(CCCCc2ccccc2)cc(=O)[nH]1
inactive: [6] 93 % of control | [7] 89 % of control | [8] 91 % of control

CC(=O)Nc1nc(Br)c2ccccc2c1-c1ccc(N(CCOS(=O)(=O)c2ccc(C)cc2)CCOS(=O)(=O)c2ccc(C)cc2)cc1
inactive: endpoint: mean survival time, dose: 12.5 mg/kg/injection, schedule: Q04DX003 (ip), vehicle: DMSO 98 % of control | endpoint: mean survival time, dose: 25.0 mg/kg/injection, schedule: Q04DX003 (ip), vehicle: DMSO 102 % of control | endpoint: mean survival time, dose: 50.0 mg/kg/injection, schedule: Q04DX003 (ip), vehicle: DMSO 102 % of control | endpoint: mean survival time, dose: 100.0 mg/kg/injection, schedule: Q04DX003 (ip), vehicle: DMSO 105 % of control

COc1ccccc1NC(=O)Oc1cccc(OC(=O)c2ccccc2)c1
inactive: [9] 96 % of control | [10] 103 % of control | [11] 88 % of control

CCCCCCCCOc1ccc(Cl)cc1Cl
inactive: [9] 96 % of control | [10] 104 % of control | [11] 104 % of control

O=C(O)Cc1ccc(O)c(O)c1.[Pt].c1ccc([PH+](c2ccccc2)c2ccccc2)cc1.c1ccc([PH+](c2ccccc2)c2ccccc2)cc1
inactive: endpoint: median survival time, dose: 10.0 mg/kg/injection, schedule: Q04DX003 (ip), vehicle: saline with Tween-80 103 % of control | endpoint: median survival time, dose: 20.0 mg/kg/injection, schedule: Q04DX003 (ip), vehicle: saline with Tween-80 95 % of control | endpoint: median survival time, dose: 40.0 mg/kg/injection, schedule: Q04DX003 (ip), vehicle: saline with Tween-80 101 % of control | endpoint: median survival time, dose: 50.0 mg/kg/injection, schedule: Q04DX003 (ip), vehicle: saline with Tween-80 94 % of control | endpoint: median survival time, dose: 80.0 mg/kg/injection, schedule: Q04DX003 (ip), vehicle: saline with Tween-80 94 % of control | endpoint: median survival time, dose: 100.0 mg/kg/injection, schedule: Q04DX003 (ip), vehicle: saline with Tween-80 94 % of control | endpoint: median survival time, dose: 200.0 mg/kg/injection, schedule: Q04DX003 (ip), vehicle: saline with Tween-80 97 % of control | endpoint: median survival time, dose: 400.0 mg/kg/injection, schedule: Q04DX003 (ip), vehicle: saline with Tween-80 89 % of control

NC(=O)SCCCCl
inactive: [1] 103 % of control | endpoint: mean survival time, dose: 118.0 mg/kg/injection, schedule: Q01DX009 (ip), vehicle: saline with Tween-80 106 % of control | endpoint: mean survival time, dose: 178.0 mg/kg/injection, schedule: Q01DX009 (ip), vehicle: saline with Tween-80 112 % of control | [3] 113 % of control | endpoint: mean survival time, dose: 266.0 mg/kg/injection, schedule: Q01DX009 (ip), vehicle: saline with Tween-80 124 % of control

O=C(Oc1cccc(OC(=O)c2ccccc2)c1)c1ccccc1
inactive: [1] 100 % of control | [3] 97 % of control | [5] 95 % of control

OCC1OC(Oc2ccccc2)C(O)C1O (stereo unspecified)
inactive: endpoint: mean survival time, dose: 75.0 mg/kg/injection, schedule: Q01DX001 (ip), vehicle: saline 93 % of control | endpoint: mean survival time, dose: 150.0 mg/kg/injection, schedule: Q01DX001 (ip), vehicle: saline 98 % of control | endpoint: mean survival time, dose: 300.0 mg/kg/injection, schedule: Q01DX001 (ip), vehicle: saline 98 % of control

O=C(Sc1ccc([N+](=O)[O-])cc1)C(=O)Sc1ccc([N+](=O)[O-])cc1
inactive: endpoint: mean survival time, dose: 12.5 mg/kg/injection, schedule: Q01DX009 (ip), vehicle: saline with Tween-80 91 % of control | [12] 98 % of control

CCCOC(=O)Nc1ccccn1
inactive: [9] 108 % of control | [10] 108 % of control | [11] 97 % of control

Nc1nc(NNC(=O)CCCO)c2nonc2n1
inactive: endpoint: mean survival time, dose: 9.4 mg/kg/injection, schedule: Q01DX005 (ip), vehicle: other 97 % of control | endpoint: mean survival time, dose: 18.8 mg/kg/injection, schedule: Q01DX005 (ip), vehicle: other 109 % of control | endpoint: mean survival time, dose: 37.5 mg/kg/injection, schedule: Q01DX005 (ip), vehicle: other 105 % of control | endpoint: mean survival time, dose: 75.0 mg/kg/injection, schedule: Q01DX005 (ip), vehicle: other 105 % of control | endpoint: mean survival time, dose: 150.0 mg/kg/injection, schedule: Q01DX005 (ip), vehicle: other 105 % of control

O=C(O)Cc1cc(O)c(CC(=O)O)cc1O
inactive: [9] 95 % of control | [10] 95 % of control | [11] 91 % of control

COc1nc(NC(C)C)nc(NC(C)C)n1
inactive: [12] 97 % of control | [1] 107 % of control | [2] 95 % of control | [3] 105 % of control | [4] 100 % of control

CCCCNc1c(C(=O)N2CCCCC2)cnc2c1cnn2CC
inactive: [2] 97 % of control | [4] 101 % of control

O=C1c2ccccc2C(=O)c2c(O)c(N3CCC(C(=O)O)CC3)cc(O)c21
inactive: endpoint: mean survival time, dose: 12.5 mg/kg/injection, schedule: Q01DX005 (ip), vehicle: other 106 % of control | endpoint: mean survival time, dose: 25.0 mg/kg/injection, schedule: Q01DX005 (ip), vehicle: other 104 % of control | endpoint: mean survival time, dose: 50.0 mg/kg/injection, schedule: Q01DX005 (ip), vehicle: other 106 % of control | endpoint: mean survival time, dose: 100.0 mg/kg/injection, schedule: Q01DX005 (ip), vehicle: other 96 % of control | endpoint: mean survival time, dose: 200.0 mg/kg/injection, schedule: Q01DX005 (ip), vehicle: other 98 % of control

CCOC(=O)c1c(C)[nH]c(C(=O)C(N=O)C(=O)OCC)c1C (stereo unspecified)
inactive: [6] 101 % of control | [7] 97 % of control | [8] 97 % of control

COc1cc(Cl)ccc1NC(=O)OCCOc1ccc(Cl)cc1
inactive: [12] 91 % of control | [1] 88 % of control | [3] 91 % of control

NNC(=O)Nc1nn[nH]n1
inactive: [9] 97 % of control | [10] 97 % of control | [11] 94 % of control

CC1C(C(=O)c2ccc(-c3ccccc3)cc2)N1c1ccccc1 (stereo unspecified)
inactive: endpoint: mean survival time, dose: 100.0 mg/kg/injection, schedule: Q01DX001 (ip), vehicle: Klucel (hydroxypropylcellulose) (HPC) 94 % of control | endpoint: mean survival time, dose: 200.0 mg/kg/injection, schedule: Q01DX001 (ip), vehicle: Klucel (hydroxypropylcellulose) (HPC) 101 % of control | endpoint: mean survival time, dose: 400.0 mg/kg/injection, schedule: Q01DX001 (ip), vehicle: Klucel (hydroxypropylcellulose) (HPC) 86 % of control

O=[N+]([O-])c1ccc(/C=N\N=C\c2ccc([N+](=O)[O-])cc2)cc1
inactive: endpoint: mean survival time, dose: 50.0 mg/kg/injection, schedule: Q01DX009 (ip), vehicle: Klucel (hydroxypropylcellulose) (HPC) 106 % of control | endpoint: mean survival time, dose: 100.0 mg/kg/injection, schedule: Q01DX009 (ip), vehicle: Klucel (hydroxypropylcellulose) (HPC) 106 % of control | endpoint: mean survival time, dose: 200.0 mg/kg/injection, schedule: Q01DX009 (ip), vehicle: Klucel (hydroxypropylcellulose) (HPC) 109 % of control

O=N/N=c1/c2[nH]cnc2ncn1O
inactive: endpoint: mean survival time, dose: 12.5 mg/kg/injection, schedule: Q01DX005 (ip), vehicle: distilled water + Tween-80 110 % of control | endpoint: mean survival time, dose: 25.0 mg/kg/injection, schedule: Q01DX005 (ip), vehicle: distilled water + Tween-80 93 % of control | endpoint: mean survival time, dose: 50.0 mg/kg/injection, schedule: Q01DX005 (ip), vehicle: distilled water + Tween-80 89 % of control | endpoint: mean survival time, dose: 100.0 mg/kg/injection, schedule: Q01DX005 (ip), vehicle: distilled water + Tween-80 88 % of control | endpoint: mean survival time, dose: 200.0 mg/kg/injection, schedule: Q01DX005 (ip), vehicle: distilled water + Tween-80 93 % of control

CC1COCC(C)N1N=Nc1ccccc1-c1nc(N)c2ccccc2n1 (stereo unspecified)
inactive: endpoint: mean survival time, dose: 100.0 mg/kg/injection, schedule: Q04DX002 (ip), vehicle: Klucel (hydroxypropylcellulose) (HPC) 88 % of control | endpoint: mean survival time, dose: 200.0 mg/kg/injection, schedule: Q04DX002 (ip), vehicle: Klucel (hydroxypropylcellulose) (HPC) 92 % of control | endpoint: mean survival time, dose: 400.0 mg/kg/injection, schedule: Q04DX002 (ip), vehicle: Klucel (hydroxypropylcellulose) (HPC) 98 % of control
